Source: ChEMBL document CHEMBL5126529, “Drug discovery of histone lysine demethylases (KDMs) inhibitors (progress from 2018 to present)” (Eur J Med Chem, 2022)
Blank lines part the entries; values can stand above or below the compound they belong to.

How the values were obtained:
[1] = target: T1, Lysine-specific histone demethylase 1A (Homo sapiens, UniProt O60341)
[2] = target: Probable JmjC domain-containing histone demethylation protein 2C (Homo sapiens, UniProt Q15652); experiment: Binding affinity to CM7 sensor chip immobilized partial-length JMJD1C (2274 to 2498 residues) (unknown origin) expressed in Escherichia coli assessed as dissociation constant incubated for 60 secs by SPR analysis
[3] = target: Lysine-specific demethylase 3B (Homo sapiens, UniProt Q7LBC6); experiment: Binding affinity to CM7 sensor chip immobilized full-length KDM3B (unknown origin) expressed in Sf9 insect cells assessed as dissociation constant incubated for 60 secs by SPR analysis
[4] = target: T2, MAO-A (Homo sapiens, UniProt P21397); experiment: Inhibition of recombinant MAO-A (unknown origin) using luciferin substrate at 10 uM preincubated for 15 mins followed by substrate addition measured after 1 hr by luciferase based assay relative to control; conditions: probe luciferin substrate, time 75 min
T2 sequence (P21397 whole entry): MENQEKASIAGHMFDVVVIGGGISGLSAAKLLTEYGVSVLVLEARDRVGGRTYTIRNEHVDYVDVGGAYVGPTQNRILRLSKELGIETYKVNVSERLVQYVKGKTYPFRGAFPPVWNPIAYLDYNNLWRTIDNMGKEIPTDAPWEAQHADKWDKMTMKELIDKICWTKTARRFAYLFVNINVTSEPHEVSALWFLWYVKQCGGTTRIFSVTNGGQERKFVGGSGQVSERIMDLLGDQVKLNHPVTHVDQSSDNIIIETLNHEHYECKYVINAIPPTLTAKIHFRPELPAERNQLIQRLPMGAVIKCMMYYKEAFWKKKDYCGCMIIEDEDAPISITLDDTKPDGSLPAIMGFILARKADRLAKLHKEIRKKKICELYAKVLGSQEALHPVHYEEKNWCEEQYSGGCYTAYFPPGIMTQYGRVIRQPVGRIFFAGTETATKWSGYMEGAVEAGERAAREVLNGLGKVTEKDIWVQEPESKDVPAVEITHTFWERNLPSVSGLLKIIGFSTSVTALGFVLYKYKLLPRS

[5] = target: T3, MAO-B (Homo sapiens, UniProt P27338); experiment: Inhibition of recombinant MAO-B (unknown origin) using luciferin substrate at 10 uM preincubated for 15 mins followed by substrate addition measured after 1 hr by luciferase based assay relative to control; conditions: probe luciferin substrate, time 75 min
T3 sequence (P27338 whole entry): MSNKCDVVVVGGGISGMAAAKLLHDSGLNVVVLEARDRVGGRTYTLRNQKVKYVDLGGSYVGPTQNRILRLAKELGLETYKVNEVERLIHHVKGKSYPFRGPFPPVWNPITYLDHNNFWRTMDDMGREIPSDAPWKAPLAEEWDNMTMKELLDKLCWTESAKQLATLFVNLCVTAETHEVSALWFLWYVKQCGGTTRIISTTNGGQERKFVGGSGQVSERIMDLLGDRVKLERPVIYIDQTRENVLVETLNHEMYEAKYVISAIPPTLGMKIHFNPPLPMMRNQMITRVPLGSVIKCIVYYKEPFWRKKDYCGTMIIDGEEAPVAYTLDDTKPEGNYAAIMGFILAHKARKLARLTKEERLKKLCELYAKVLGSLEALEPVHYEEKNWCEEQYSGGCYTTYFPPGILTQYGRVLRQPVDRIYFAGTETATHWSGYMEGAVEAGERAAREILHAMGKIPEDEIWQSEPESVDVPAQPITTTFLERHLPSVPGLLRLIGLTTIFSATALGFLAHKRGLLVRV

[6] = target: T1, Lysine-specific histone demethylase 1A; remark: listed apart in the source
[7] = target: T1, Lysine-specific histone demethylase 1A; experiment: Binding affinity to human KDM1A (172 to 833 residues) assessed as inhibition constant using Lys4-dimethylated H3 peptide as substrate incubated for 30 mins by enzymatic assay
[8] = target: Lysine-specific histone demethylase 2 (Homo sapiens, UniProt Q8NB78); experiment: Binding affinity to KDM1B (unknown origin) assessed as inhibition constant using Lys4-dimethylated H3 peptide as substrate incubated for 30 mins by enzymatic assay
[9] = target: T4, Amine oxidase [flavin-containing] A (Homo sapiens, UniProt P21397); experiment: Binding affinity to human MAO-A assessed as inhibition constant using tyramine as substrate incubated for 30 mins by enzymatic assay
T4 sequence (P21397 whole entry): T2 sequence (P21397 whole entry)

[10] = target: T5, Amine oxidase [flavin-containing] B (Homo sapiens, UniProt P27338); experiment: Binding affinity to human MAO-B assessed as inhibition constant using tyramine as substrate incubated for 30 mins by enzymatic assay
T5 sequence (P27338 whole entry): T3 sequence (P27338 whole entry)

[11] = target: Lysine-specific demethylase 5C (Homo sapiens, UniProt P41229); experiment: Inhibition of N-terminal FLAG/His-tagged full-length human KDM5C (2 to 1560 residues) expressed in baculovirus infected Sf9 insect cells using peptide substrate at 10 uM incubated for 2 hrs by Alpha Screen assay relative to control
[12] = target: T1, Lysine-specific histone demethylase 1A; experiment: Inhibition of KDM1A (unknown origin) by fluorescence based assay
[13] = target: T5, Amine oxidase [flavin-containing] B
[14] = target: T1, Lysine-specific histone demethylase 1A; experiment: Inhibition of recombinant human KDM1A (158 to 852 residues) using H3K4Me2 peptide as substrate preincubated for 15 mins followed by substrate addition measured after 60 mins by AlphaLISA assay
[15] = target: T2, MAO-A; experiment: Inhibition of MAO-A (unknown origin) at 100 uM relative to control
[16] = target: T3, MAO-B; experiment: Inhibition of MAO-B (unknown origin) at 100 uM relative to control
[17] = target: T4, Amine oxidase [flavin-containing] A; experiment: Inhibition of MAO-A (unknown origin) by luminometry
[18] = test system: HAL-01; experiment: cells; conditions: Homo sapiens
[19] = test system: KE-37; experiment: cells; conditions: Homo sapiens
[20] = test system: P30-OHK; experiment: cells; conditions: Homo sapiens
[21] = test system: SUP-B15; experiment: cells; conditions: Homo sapiens
[22] = test system: MOLT-4; experiment: cells; conditions: Homo sapiens
[23] = test system: LC4-1; experiment: cells; conditions: Homo sapiens

Sequence of Lysine-specific demethylase 3B (Q7LBC6 whole entry): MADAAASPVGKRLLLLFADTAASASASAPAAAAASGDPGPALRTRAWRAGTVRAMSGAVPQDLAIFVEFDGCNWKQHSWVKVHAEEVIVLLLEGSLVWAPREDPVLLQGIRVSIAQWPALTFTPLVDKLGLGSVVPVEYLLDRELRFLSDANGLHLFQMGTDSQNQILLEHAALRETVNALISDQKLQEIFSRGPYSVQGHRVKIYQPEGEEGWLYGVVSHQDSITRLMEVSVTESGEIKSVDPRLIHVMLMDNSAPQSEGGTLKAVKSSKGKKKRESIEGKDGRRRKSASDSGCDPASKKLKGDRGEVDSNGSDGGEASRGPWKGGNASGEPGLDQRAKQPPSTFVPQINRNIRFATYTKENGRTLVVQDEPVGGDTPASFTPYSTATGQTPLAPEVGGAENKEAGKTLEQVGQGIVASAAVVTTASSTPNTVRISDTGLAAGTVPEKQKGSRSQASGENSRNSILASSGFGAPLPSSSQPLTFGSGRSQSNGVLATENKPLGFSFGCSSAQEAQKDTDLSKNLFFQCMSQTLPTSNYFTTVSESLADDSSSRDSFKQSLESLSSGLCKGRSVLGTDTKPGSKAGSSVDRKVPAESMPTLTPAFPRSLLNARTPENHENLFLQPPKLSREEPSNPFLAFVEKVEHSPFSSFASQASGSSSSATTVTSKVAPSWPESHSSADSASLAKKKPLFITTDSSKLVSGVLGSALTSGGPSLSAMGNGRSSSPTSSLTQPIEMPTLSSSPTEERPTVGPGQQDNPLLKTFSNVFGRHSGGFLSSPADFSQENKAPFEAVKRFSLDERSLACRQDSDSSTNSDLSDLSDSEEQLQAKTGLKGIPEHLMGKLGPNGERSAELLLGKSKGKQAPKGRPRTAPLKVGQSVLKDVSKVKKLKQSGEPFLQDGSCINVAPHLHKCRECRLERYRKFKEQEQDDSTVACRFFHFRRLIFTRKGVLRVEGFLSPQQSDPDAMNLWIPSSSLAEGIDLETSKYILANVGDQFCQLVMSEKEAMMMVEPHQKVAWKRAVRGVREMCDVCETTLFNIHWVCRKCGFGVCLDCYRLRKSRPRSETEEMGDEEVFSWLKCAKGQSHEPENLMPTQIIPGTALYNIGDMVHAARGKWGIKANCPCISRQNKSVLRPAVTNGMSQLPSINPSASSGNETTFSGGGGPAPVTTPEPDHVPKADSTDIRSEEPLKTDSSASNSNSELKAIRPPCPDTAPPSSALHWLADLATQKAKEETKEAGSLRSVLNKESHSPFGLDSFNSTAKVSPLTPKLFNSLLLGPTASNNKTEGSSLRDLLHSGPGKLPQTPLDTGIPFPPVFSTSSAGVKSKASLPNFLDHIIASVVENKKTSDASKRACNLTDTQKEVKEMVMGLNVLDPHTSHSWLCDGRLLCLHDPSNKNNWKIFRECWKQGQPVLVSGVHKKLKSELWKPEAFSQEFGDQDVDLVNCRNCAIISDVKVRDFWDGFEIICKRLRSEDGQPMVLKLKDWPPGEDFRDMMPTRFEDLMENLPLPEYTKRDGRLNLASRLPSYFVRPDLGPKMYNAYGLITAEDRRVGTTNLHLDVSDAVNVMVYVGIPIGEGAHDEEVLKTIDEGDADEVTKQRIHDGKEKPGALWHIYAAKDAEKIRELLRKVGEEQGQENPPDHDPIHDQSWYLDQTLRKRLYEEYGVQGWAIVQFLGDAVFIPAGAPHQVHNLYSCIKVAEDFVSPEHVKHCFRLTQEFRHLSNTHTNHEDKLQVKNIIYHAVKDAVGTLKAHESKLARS
Sequence of Probable JmjC domain-containing histone demethylation protein 2C (Q15652 whole entry, the tested form may be a part): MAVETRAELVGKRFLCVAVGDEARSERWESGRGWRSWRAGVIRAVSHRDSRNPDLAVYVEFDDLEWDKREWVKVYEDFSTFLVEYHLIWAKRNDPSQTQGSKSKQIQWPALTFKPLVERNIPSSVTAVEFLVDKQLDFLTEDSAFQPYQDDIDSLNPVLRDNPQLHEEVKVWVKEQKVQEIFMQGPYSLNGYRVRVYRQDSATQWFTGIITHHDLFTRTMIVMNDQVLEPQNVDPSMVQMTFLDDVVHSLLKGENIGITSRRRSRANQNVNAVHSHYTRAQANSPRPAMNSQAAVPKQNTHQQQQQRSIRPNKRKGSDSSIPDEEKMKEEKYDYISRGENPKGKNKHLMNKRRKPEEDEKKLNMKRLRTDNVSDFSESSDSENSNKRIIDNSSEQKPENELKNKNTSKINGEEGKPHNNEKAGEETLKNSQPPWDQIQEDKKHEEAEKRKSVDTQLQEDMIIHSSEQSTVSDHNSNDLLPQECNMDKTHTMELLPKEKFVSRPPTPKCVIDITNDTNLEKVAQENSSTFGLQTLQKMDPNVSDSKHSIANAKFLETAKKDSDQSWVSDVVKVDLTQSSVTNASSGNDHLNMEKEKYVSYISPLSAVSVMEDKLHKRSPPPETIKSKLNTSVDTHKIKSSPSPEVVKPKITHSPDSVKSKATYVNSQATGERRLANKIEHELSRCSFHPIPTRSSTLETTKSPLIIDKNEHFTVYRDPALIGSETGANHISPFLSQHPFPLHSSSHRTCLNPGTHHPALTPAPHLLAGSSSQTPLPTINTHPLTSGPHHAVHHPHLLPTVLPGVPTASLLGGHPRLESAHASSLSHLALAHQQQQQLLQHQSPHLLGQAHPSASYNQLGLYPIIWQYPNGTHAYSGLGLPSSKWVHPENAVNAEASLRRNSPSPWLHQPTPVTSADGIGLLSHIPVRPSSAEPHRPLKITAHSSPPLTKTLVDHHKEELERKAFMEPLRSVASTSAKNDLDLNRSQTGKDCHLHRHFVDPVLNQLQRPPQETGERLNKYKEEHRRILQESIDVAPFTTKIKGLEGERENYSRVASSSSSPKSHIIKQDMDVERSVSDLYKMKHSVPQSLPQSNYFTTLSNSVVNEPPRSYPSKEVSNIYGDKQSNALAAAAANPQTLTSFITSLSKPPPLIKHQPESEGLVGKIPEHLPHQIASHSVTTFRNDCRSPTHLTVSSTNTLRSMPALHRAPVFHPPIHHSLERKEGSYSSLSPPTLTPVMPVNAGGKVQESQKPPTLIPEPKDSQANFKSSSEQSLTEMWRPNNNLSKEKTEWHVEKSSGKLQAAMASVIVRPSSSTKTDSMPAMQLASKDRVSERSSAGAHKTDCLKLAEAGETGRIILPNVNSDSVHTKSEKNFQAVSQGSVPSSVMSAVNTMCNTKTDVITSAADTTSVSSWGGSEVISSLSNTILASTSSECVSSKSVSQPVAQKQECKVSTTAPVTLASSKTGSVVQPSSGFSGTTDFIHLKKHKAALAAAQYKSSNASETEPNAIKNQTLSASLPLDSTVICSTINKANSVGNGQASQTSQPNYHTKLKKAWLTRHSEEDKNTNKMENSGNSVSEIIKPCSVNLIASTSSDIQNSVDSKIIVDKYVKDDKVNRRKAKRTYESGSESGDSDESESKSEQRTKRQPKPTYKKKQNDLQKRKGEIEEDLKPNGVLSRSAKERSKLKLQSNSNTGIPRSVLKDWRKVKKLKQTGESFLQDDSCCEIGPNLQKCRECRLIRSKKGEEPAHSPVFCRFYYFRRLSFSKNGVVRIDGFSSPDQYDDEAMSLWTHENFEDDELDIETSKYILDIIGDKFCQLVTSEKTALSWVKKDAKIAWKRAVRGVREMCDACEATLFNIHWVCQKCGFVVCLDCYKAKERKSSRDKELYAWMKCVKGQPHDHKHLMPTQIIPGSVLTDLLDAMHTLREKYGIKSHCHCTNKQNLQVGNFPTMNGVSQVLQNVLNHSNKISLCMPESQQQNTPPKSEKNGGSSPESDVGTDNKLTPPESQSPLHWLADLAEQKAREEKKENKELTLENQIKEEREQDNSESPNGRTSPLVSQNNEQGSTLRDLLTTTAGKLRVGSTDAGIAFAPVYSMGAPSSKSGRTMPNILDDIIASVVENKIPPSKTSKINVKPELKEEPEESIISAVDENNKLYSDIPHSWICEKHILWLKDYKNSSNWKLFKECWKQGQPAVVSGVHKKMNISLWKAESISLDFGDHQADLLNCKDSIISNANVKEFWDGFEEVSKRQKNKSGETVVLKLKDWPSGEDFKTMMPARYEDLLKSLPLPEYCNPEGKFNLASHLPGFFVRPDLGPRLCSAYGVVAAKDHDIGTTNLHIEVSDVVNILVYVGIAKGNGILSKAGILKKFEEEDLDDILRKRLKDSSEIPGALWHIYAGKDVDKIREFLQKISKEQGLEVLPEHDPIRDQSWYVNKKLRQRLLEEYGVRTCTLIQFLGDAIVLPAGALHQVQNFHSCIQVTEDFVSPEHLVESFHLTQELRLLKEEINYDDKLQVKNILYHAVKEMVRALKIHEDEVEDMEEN
Sequence of Lysine-specific histone demethylase 2 (Q8NB78 whole entry): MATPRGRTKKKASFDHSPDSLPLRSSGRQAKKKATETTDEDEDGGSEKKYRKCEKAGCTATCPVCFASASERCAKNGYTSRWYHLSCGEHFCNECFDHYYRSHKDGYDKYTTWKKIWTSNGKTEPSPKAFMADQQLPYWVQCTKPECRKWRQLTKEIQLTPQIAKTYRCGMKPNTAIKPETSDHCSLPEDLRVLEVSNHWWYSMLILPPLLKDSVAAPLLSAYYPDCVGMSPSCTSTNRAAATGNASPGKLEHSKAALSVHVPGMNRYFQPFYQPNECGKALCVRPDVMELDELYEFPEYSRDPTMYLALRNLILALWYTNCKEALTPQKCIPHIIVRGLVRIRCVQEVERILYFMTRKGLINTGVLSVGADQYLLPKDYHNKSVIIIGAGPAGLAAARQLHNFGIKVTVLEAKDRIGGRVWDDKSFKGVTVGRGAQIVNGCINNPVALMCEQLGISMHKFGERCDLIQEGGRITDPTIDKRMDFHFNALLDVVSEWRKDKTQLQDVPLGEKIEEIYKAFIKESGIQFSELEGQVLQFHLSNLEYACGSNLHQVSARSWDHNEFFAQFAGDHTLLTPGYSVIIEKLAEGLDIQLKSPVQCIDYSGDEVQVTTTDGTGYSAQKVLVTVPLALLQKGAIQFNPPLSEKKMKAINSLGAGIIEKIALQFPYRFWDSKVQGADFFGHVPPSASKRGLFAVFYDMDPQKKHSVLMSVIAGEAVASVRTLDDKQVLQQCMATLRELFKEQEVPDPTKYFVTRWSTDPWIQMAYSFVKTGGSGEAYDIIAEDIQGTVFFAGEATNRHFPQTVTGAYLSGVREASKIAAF

SMILES: CSCC[C@H](NC(=O)[C@@H](NC(=O)[C@H](CCCNC(=N)N)NC(=O)[C@H](C)N)[C@@H](C)O)C(=O)N[C@@H](CCC(N)=O)C(=O)N[C@H](C(=O)N[C@@H](C)C(=O)N[C@@H](CCCNC(=N)N)C(=O)N[C@@H](CCCCN)C(=O)N[C@@H](CO)C(=O)N[C@H](C(=O)O)[C@@H](C)O)[C@@H](C)O
Kd [1]: 140 µM

Kd [2]: 26.7 µM | Kd [3]: 16.3 µM
SMILES: CC(=O)Nc1ccc(S(=O)(=O)N[C@H]2CO[C@H]3[C@@H]2OC[C@@H]3Nc2nccc(-c3cccc(F)c3)n2)cc1

inhibition at 1 h, 10 µM [4]: < 15% | inhibition at 1 h, 10 µM [5]: < 15%
SMILES: Oc1ccc(CC2NCCc3cc(O)c(O)cc32)cc1 (stereo not given) [HIGENAMINE]

IC50 [6]: 0.296 µM
SMILES: CCOC(=O)C(c1cc(OC)c(OC)cc1O)N1CCOCC1 (stereo not given)

Ki [7]: 0.37 µM | Ki [8]: > 250 µM | Ki [9]: > 250 µM | Ki [10]: > 250 µM
SMILES: CN1CCN(C(=O)NC2CC2c2cc(F)cc(F)c2OCc2ccccc2)CC1 (stereo not given)

inhibition [11]: 14%
SMILES: COC(=O)c1ccnc(-c2cn(CCN(C)CCCCCCCCCCOc3cccc4c3C(=O)N(C3CCC(=O)NC3=O)C4=O)nn2)c1 (stereo not given)

IC50 [12]: 2.44 µM
SMILES: COc1cc2c(cc1OC)-c1c(C)c3ccc(OC)c(OC)c3c[n+]1CC2 [DEHYDROCORYDALINE]

IC50 [13]: > 200 µM
SMILES: O=C(c1ccc(OCCN2CCCCC2)cc1)c1c(-c2ccc(O)cc2)sc2cc(O)ccc12 [RALOXIFENE]

IC50 [14]: 4 µM
SMILES: COCc1cccc(NC(=O)c2cc3ccccc3n2C)c1COc1ccc(OCC2CCNCC2)cc1

inhibition at 100 µM [15]: 2% | inhibition at 100 µM [16]: 8% | IC50 [6]: 0.051 µM
SMILES: NC1CC1c1ccc(NC(=O)c2ccc(-c3ccccc3)cc2)cc1 (stereo not given)

IC50 [17]: 20 µM | IC50 [18]: 1.1 µM | IC50 [19]: 3.64 µM | IC50 [20]: 3.85 µM | IC50 [21]: 1.87 µM | IC50 [22]: 0.87 µM | IC50 [23]: 2.73 µM
SMILES: CC(C)(C)OC(=O)N1CCN(C(=S)SCC(=O)Nc2ccc(C(=O)/C=C/c3ccccc3F)cc2)CC1

IC50 [12]: 3.97 µM
SMILES: C=C[C@]1(C)C[C@@H]2OC(=O)C(C)=C2C[C@H]1C(=C)C [ISOGERMAFURENOLIDE]
